Experimental data taken from patent publication US11255806B2, “Interdigitated electrodes for in vitro analysis of cells” (UNIVERSITY OF CENTRAL FLORIDA RESEARCH FOUNDATION, INC., priority 2017, dated 2022).
“And” between values parts separate entries of the source, which are not always exact repeats. Identical values can stand only once.

Test system: iPSC cardiomyocytes (iCell Cardiomyocytes^2)
Assay: Model drug (norepinephrine) cardiotoxicity experiment: impedance / cell index on nIDEs with cultured iPSC cardiomyocytes
Type: cell-based, Human

NC[C@H](O)c1ccc(O)c(O)c1 [norepinephrine]
change of CI and % CI with norepinephrine concentration (0 μM to 250 μM, N=6, FIG. 24): both decrease as the concentration of norepinephrine increases | percent cell index (% CI) (at 256 μm norepinephrine, mean of N=7, 86.91% at 0 μM, FIG. 24): 48.88% | cell index (CI) (at 256 μm norepinephrine, mean of N=7, CI=2.34 at 0 μM, FIG. 23): 1.13 | cellular index (CI) after increased concentrations of norepinephrine (summary statement, concentration not given, decrease from 2.34 / 2.3): 1.13 and 1
